Assays:
Assay in all cases: relative viability (nuclei count vs DMSO), 5 days (fraction); higher = more cells survive
XMD14-99 = compound: CN1CCN(CC1)C2=CC(=C(C=C2)NC3=NC(=C(S3)C(=O)C4=C(C=CC=C4Cl)Cl)N)OC [XMD14-99]
How it was run: (§1)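 Lung cancer cell lines in 1536-well plates were kept overnight at 37 °C, then pinned with five library-drug doses (not always all listed) spaced by √10 on vehicle-anchored plates. After 5 days without medium change, cells were fixed, permeabilised and Hoechst-stained in one step, imaged at 4×, and nuclei were counted with MetaXpress. Viability is treated-well nuclei divided by vehicle-well nuclei, taken as the median over plates. Plates passed only with control CV below 25% and at least one doubling.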

AZD1208 = compound: N[C@@H]1CCCN(c2c(/C=C3\SC(=O)NC3=O)cccc2-c2ccccc2)C1 [AZD1208]
How it was run: as §1

AZD1208 + Bortezomib = compound: N[C@@H]1CCCN(c2c(/C=C3\SC(=O)NC3=O)cccc2-c2ccccc2)C1 [AZD1208] + CC(C)C[C@H](NC(=O)[C@H](Cc1ccccc1)NC(=O)c1cnccn1)B(O)O [Bortezomib] (partner 0.002 µM)
How it was run: (§2)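 Five library-drug doses in √10 steps were combined with a fixed anchor-drug dose, or a single drug was given alone, by pin tool to lung cancer cell lines in 1536-well plates the day after seeding. Nuclei were stained and counted after 5 days. Relative viability is the nuclei count in treated wells over that in vehicle wells, taken as the median of duplicate plates.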

XMD14-99 + Alpelisib = compound: CN1CCN(CC1)C2=CC(=C(C=C2)NC3=NC(=C(S3)C(=O)C4=C(C=CC=C4Cl)Cl)N)OC [XMD14-99] + Cc1nc(NC(=O)N2CCC[C@H]2C(N)=O)sc1-c1ccnc(C(C)(C)C(F)(F)F)c1 [Alpelisib] (partner 2 µM)
How it was run: as §2

Cell Line	relative viability (XMD14-99; 0.08 µM)	relative viability (XMD14-99; 0.8 µM)	relative viability (XMD14-99; 2.53 µM)	relative viability (XMD14-99; 8 µM)	relative viability (AZD1208; 0.08 µM)	relative viability (AZD1208; 0.253 µM)	relative viability (AZD1208; 0.8 µM)	relative viability (AZD1208; 2.53 µM)	relative viability (AZD1208; 8 µM)	relative viability (AZD1208 + Bortezomib; first compound 0.08 µM)	relative viability (AZD1208 + Bortezomib; first compound 0.253 µM)	relative viability (AZD1208 + Bortezomib; first compound 0.8 µM)	relative viability (AZD1208 + Bortezomib; first compound 2.53 µM)	relative viability (AZD1208 + Bortezomib; first compound 8 µM)	relative viability (XMD14-99 + Alpelisib; first compound 0.08 µM)	relative viability (XMD14-99 + Alpelisib; first compound 0.8 µM)	relative viability (XMD14-99 + Alpelisib; first compound 2.53 µM)	relative viability (XMD14-99 + Alpelisib; first compound 8 µM)
Calu-6	0.937	0.932	0.936	0.785	1	1.1	0.968	1.04	0.989	1.01	1.02	0.976	1.03	0.929	0.929	0.959	0.919	0.67
EBC-1	0.962	0.924	0.842	0.637	1.02	1.12	0.93	0.967	0.957	0.597	0.586	0.508	0.456	0.448	0.819	0.783	0.653	0.561
A-427	1.05	0.939	0.866	0.643	1.1	0.972	0.895	0.962	0.747	1	0.939	0.963	0.936	0.884	1.09	1.08	0.954	0.9
NCI-H2405	0.962	1.02	0.964	0.726	1.01	0.938	0.942	0.964	0.947	0.986	1.01	0.936	1.01	0.989	0.792	0.895	0.809	0.416
NCI-H1355	0.996	0.999	0.89	0.825	1.03	0.983	0.908	0.876	0.789	1.29	1.09	1.15	1.2	1.04	0.928	0.893	0.68	0.657
RERF-LC-KJ	0.991	0.938	0.903	0.834	0.998	1.03	0.878	0.935	0.746	1.1	1.21	1.06	1	0.818	0.718	0.917	0.75	0.588
NCI-H23	1.01	0.996	0.911	0.685	0.968	1.08	0.902	0.886	0.842	1.01	1.07	0.926	1.14	0.634	0.608	0.657	0.69	0.491
HOP-62	1.01	1	0.993	0.868	1.09	1.07	0.941	1.02	0.944	0.827	1.06	0.724	0.598	0.507	0.883	1	1.04	0.818
HARA	0.894	0.947	0.701	0.692	0.935	1.17	0.974	0.931	0.997	1.09	1.12	1.08	1.18	1.19	0.872	0.784	0.734	0.481
PC-14	1.02	1.01	0.907	0.646	1.07	1.11	0.923	0.996	0.953	0.963	0.954	0.848	1.01	0.907	0.813	0.921	0.901	0.73
NCI-H1755	0.996	0.974	1.01	0.784	0.988	1.07	0.952	0.983	0.792	0.97	1.06	0.96	1.02	0.904	0.945	0.908	0.886	0.648
HCC-78	0.985	0.841	0.883	0.571	1.02	1.02	0.963	1.02	1.06	0.474	0.586	0.453	0.475	0.529	0.371	0.308	0.331	0.291
IA-LM	0.947	0.86	0.758	0.472	0.951	0.983	0.855	0.875	0.989	0.648	0.708	0.876	0.724	0.746	0.72	0.638	0.515	0.456
NCI-H441	0.912	0.968	0.847	0.645	0.937	1.14	0.896	0.989	0.736	0.322	0.593	0.419	0.455	0.419	0.773	0.598	0.68	0.706
NCI-H322M	0.994	0.977	0.86	0.762	0.94	0.943	0.943	0.891	1.04	1.21	1.31	1.21	1.15	1.25	0.889	0.709	0.64	0.767
NCI-H1993	0.89	0.987	0.872	0.806	0.931	0.779	0.808	0.818	0.733	–	1.04	0.925	0.998	0.888	0.63	0.731	0.601	0.59
COR-L23	1.04	0.891	0.946	0.693	0.969	1.12	0.965	0.99	1	0.927	1.11	0.888	1.02	0.929	0.768	0.749	0.515	0.301
NCI-H2126	0.993	0.991	0.977	0.897	0.998	0.965	0.942	0.866	0.79	1.1	1.14	1.09	1.07	1.1	0.745	0.75	0.723	0.647

Cell Line	relative viability (XMD14-99; 0.08 µM)	relative viability (XMD14-99; 0.8 µM)	relative viability (XMD14-99; 2.53 µM)	relative viability (XMD14-99; 8 µM)	relative viability (AZD1208; 0.08 µM)	relative viability (AZD1208; 0.253 µM)	relative viability (AZD1208; 0.8 µM)	relative viability (AZD1208; 2.53 µM)	relative viability (AZD1208; 8 µM)	relative viability (AZD1208 + Bortezomib; first compound 0.08 µM)	relative viability (AZD1208 + Bortezomib; first compound 0.253 µM)	relative viability (AZD1208 + Bortezomib; first compound 0.8 µM)	relative viability (AZD1208 + Bortezomib; first compound 2.53 µM)	relative viability (AZD1208 + Bortezomib; first compound 8 µM)	relative viability (XMD14-99 + Alpelisib; first compound 0.08 µM)	relative viability (XMD14-99 + Alpelisib; first compound 0.8 µM)	relative viability (XMD14-99 + Alpelisib; first compound 2.53 µM)	relative viability (XMD14-99 + Alpelisib; first compound 8 µM)
LC-2-ad	0.973	0.963	0.929	0.775	1.02	1.03	0.927	0.887	0.899	1.01	0.979	0.978	0.819	0.833	0.855	0.863	0.839	0.633
NCI-H1915	0.991	0.958	0.91	0.796	0.995	1.06	0.967	0.875	0.979	0.976	1.07	0.956	0.94	1.06	1.09	0.984	0.955	0.925
NCI-H2085	1	0.978	0.961	0.837	0.974	1.09	0.994	1.01	1.05	1.07	1.2	0.938	1.14	1.05	0.92	0.866	0.889	0.728
COR-L 105	0.852	1.14	0.706	0.718	0.837	0.909	0.929	0.712	0.821	0.712	1.01	0.807	0.544	0.673	0.851	0.849	0.823	0.806
SK-LU-1	0.987	1.04	0.948	0.7	0.988	1.15	0.932	1.05	0.922	1.36	1.24	1.09	0.996	0.812	0.893	0.96	0.996	0.598
LXF-289	1.02	0.964	0.976	0.889	1.05	1.06	1.01	1.03	1.12	1.04	1.1	0.999	1.07	1.15	1	0.971	1.02	0.835
PC-3 [JPC-3]	1.08	1.03	0.95	0.818	1.05	1.06	1.08	1.17	1.08	0.833	0.972	0.887	0.927	0.855	1.06	0.947	0.916	0.893
NCI-H661	0.925	0.948	0.835	0.678	0.993	1.02	1.04	0.981	0.93	0.665	0.817	0.724	0.759	0.852	0.798	0.564	0.594	0.356
NCI-H1666	1	0.922	0.999	0.877	0.992	1.06	0.881	0.942	0.959	0.828	0.745	0.783	0.637	0.579	0.866	0.94	0.805	0.699
NCI-H2087	0.957	0.968	0.818	0.483	0.956	1.18	0.821	1.01	1.01	0.827	1.01	0.846	0.941	0.909	1.03	0.801	0.827	0.549
NCI-H1734	0.969	0.969	0.922	0.754	0.887	0.989	0.874	0.841	0.647	0.831	1.05	0.811	0.991	0.611	0.659	0.704	0.738	0.584
NCI-H2228	1.12	0.961	0.891	0.398	0.954	1.19	0.953	0.788	0.84	1.15	1.15	0.865	–	0.704	0.927	0.528	0.492	0.188
EMC-BAC-2	1.01	1.03	0.889	0.645	1.23	0.95	0.917	0.949	0.754	1.15	1.16	1.05	1.02	0.919	0.728	0.767	0.74	0.619
NCI-H2009	0.987	1.03	0.887	0.804	1.03	1.07	1.01	0.975	1	1.01	1.09	0.968	0.832	1.02	1.14	1.13	1.13	0.968
NCI-H596	0.944	1.05	1.01	0.887	0.908	0.951	0.844	0.949	0.677	0.578	0.857	0.98	1.01	0.878	0.503	0.587	0.477	0.568
NCI-H650	1.02	1	0.98	0.808	1.09	0.972	0.833	0.759	0.73	1.16	0.774	0.788	0.438	0.664	1.15	0.982	0.922	0.922
NCI-H1792	1.02	0.879	0.818	0.471	1.08	1.05	0.646	0.954	0.664	0.999	0.987	0.903	0.958	0.86	0.688	0.734	0.627	0.474
